This passage reports IC50 results from patent US10689357B2, “N-acylethanolamine hydrolyzing acid amidase (NAAA) inhibitors and use thereof” (Northeastern University, priority 2018, dated 2020).

pIC50: −log10 of the molar value.

hNAAA, sequence (Q02083 29-125): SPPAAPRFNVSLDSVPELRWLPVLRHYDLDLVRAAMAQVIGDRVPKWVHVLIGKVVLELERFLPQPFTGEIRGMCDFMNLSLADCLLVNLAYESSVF
hNAAA, sequence (Q02083 126-359): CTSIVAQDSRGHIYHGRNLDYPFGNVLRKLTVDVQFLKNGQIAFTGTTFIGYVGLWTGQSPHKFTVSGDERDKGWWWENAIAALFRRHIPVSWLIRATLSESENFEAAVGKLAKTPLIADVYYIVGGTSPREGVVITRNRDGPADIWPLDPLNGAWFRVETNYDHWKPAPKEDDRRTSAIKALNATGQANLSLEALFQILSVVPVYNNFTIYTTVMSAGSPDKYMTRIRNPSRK

For this test, the target named is hNAAA (Homo sapiens (Human), UniProt Q02083). As to the kind of experiment: NAAA fluorescence-based inhibition assay with PAMCA substrate. It counts as biochemical. The note with it: purified activated hNAAA, PAMCA 5 μM, pH 4.5, 37° C. The text has this:
In order to have an assay method more conducive to high-throughput screening than those published for measuring the NAE hydrolyzing activity of NAAA [Proc. Natl. Acad. Sci. USA. 2009; 106(49):20966-71], the fluorogenic PEA analog N-(4-methyl coumarin)palmitamide (PAMCA), which is hydrolyzed to fluorescent 7-amino-4-methyl coumarin (AMC) and palmitic acid, was developed. [J. Proteome Res. 2012; 11(2):972-981], [PloS One. 2012; 7: e43877]. For three point concentration inhibition assays with hNAAA the following procedure was used. Purified activated NAAA (final concentration of 0.25 μg/mL) was incubated in assay buffer (100 mM citrate-phosphate buffer, pH 4.5, 3 mM DTT, 0.1% Triton X-100, 0.05% BSA, and 150 mM NaCl) made up to a total volume of 180 μL, followed by addition of the compound dissolved in 10 μL DMSO (along with DMSO neat for the control sample) with the final concentrations for each compound of 100, 10, and 1 μM, in triplicate on a 96 well plate. These samples were allowed to incubate for 15 min at room temperature and then 10 μL of a PAMCA stock solution in DMSO (final PAMCA concentration [5 μM]) was added. After 5 minutes of agitation on a shaking plate, the reaction was allowed to proceed at 37° C. for 120 minutes, with fluorescence readings taken every 10 minutes at a wavelength of 460 nm (using an excitation wavelength of 360 nm) on a Synergy HT Plate Reader using Gen5 software from Bio-Tek. The enzyme activity was calculated by converting the relative fluorescence units to AMC formed, using a standard curve of AMC.
For compounds that inhibit hNAAA in range IC50<1 μM, full inhibition curves using eight different concentrations of inhibitor (8 point assay) were generated. The assay procedure used was the same as the three point assay. For ostensibly covalent compounds (as observed by a significant decrease in the slope of a plot of fluorescence vs. time in three point screen), samples were allowed to incubate for 2 hours at 37° C., instead of 15 minutes, before addition of 10 μL of a PAMCA stock solution in DMSO for a final PAMCA concentration of 5 μM. After 5 minutes of agitation on a shaking plate, the reaction was allowed to proceed at 37° C. for 120 minutes. Inhibition constants were calculated using pro Fit software (Quantum Soft, Uetikon am See, Switzerland) and a Levenberg-Marquardt algorithm.
As to `COc1ccc(/C=C/C(=O)N[C@H]2C[C@@H](N=C=S)C2)cc1` [Example 1, (E)-N-((1s, 3s)-3-Isothiocyanatocyclobutyl)-3-(4-methoxyphenyl)acrylamide], the negative-log IC50 (pIC50) is < 6.00.

Turning to `COc1cccc(-c2ccc(C(=O)N[C@H]3C[C@@H](N=C=S)C3)cc2)c1` [Example 2, N-((1r, 3r)-3-Isothiocyanatocyclobutyl)-3′-methoxy-[1,1′-biphenyl]-4-carboxamide], the negative logarithm of the IC50 (pIC50) is 6.00 to 6.96.

In the case of `COc1cccc(-c2ccc(C(=O)O[C@H]3C[C@@H](N=C=S)C3)cc2)c1` [Example 3, (1r, 3r)-3-Isothiocyanatocyclobutyl 3′-methoxy-[1,1′-biphenyl]-4-carboxylate], the pIC50 is 7.00 to 8.00. The figure for `COc1ccc(Oc2ccc(C(=O)N[C@H]3C[C@H](N=C=S)C3)cc2)cc1` [Example 4, N-((1r, 3r)-3-Isothiocyanatocyclobutyl)-4-(4-methoxyphenoxy)benzamide] is < 6.00; for `O=C(N[C@H]1C[C@@H](N=C=S)C1)c1ccc(N2CCOCC2)cc1` [Example 5, N-((1r, 3r)-3-Isothiocyanatocyclobutyl)-4-morpholinobenzamide] it is < 6.00; for `O=C(N[C@H]1C[C@@H](N=C=S)C1)c1ccc(Oc2cccnc2)cc1` [Example 6, N-((1r, 3r)-3-Isothiocyanatocyclobutyl)-4-(pyridin-3-yloxy)benzamide] it is 6.00 to 6.96. Take `COc1ccc(-c2ccc(C(=O)N[C@H]3C[C@@H](N=C=S)C3)c(F)c2)cc1` [Example 7, 3-Fluoro-N-((1r, 3r)-3-isothiocyanatocyclobutyl)-4′-methoxy-[1,1′-biphenyl]-4-carboxamide]: the negative-log IC50 (pIC50) is 7.00 to 8.00. The figure for `COc1ccc(-c2ccc(C(=O)O[C@H]3C[C@@H](N=C=S)C3)c(F)c2)cc1` [Example 8, (1r, 3r)-3-Isothiocyanatocyclobutyl 3-fluoro-4′-methoxy-[1,1′-biphenyl]-4-carboxylate] is 7.00 to 8.00. For `COc1ccc(-c2ccc(C(=O)N[C@]34C[C@](N=C=S)(C3)C4)c(F)c2)cc1` [Example 9, 3-Fluoro-N-(3-isothiocyanatobicyclo[1.1.1]pentan-1-yl)-4′-methoxy-[1,1′-biphenyl]-4-carboxamide] the value was < 6.00; for `COc1ccc2cc(C(=O)N[C@H]3C[C@@H](N=C=S)C3)ccc2c1` [Example 10, N-((1s, 3 s)-3-Isothiocyanatocyclobutyl)-6-methoxy-2-naphthamide], < 6.00. Consider `CC[C@H]1CC[C@H](c2ccc(C(=O)N[C@H]3C[C@@H](N=C=S)C3)cc2)CC1` [Example 11, 4-((1s, 4s)-4-Ethylcyclohexyl)-N-((1r, 3R)-3-isothiocyanatocyclobutyl) benzamide], for which the negative logarithm of the IC50 (pIC50) was < 6.00. For `COc1ccc(CCC(=O)N[C@H]2C[C@@H](N=C=S)C2)cc1` [Example 12, N-((1r, 3r)-3-Isothiocyanatocyclobutyl)-3-(4-methoxyphenyl)propanamide] the value was 6.00 to 6.96. For the molecule `COc1ccc(C#CC(=O)N[C@H]2C[C@@H](N=C=S)C2)cc1` [Example 13, N-((1r, 3r)-3-Isothiocyanatocyclobutyl)-3-(4-methoxyphenyl)propiolamide], the pIC50 is 6.00 to 6.96. The figure for `COc1ccc(C2CC2C(=O)N[C@H]2C[C@@H](N=C=S)C2)cc1` (stereo partly shown) [Example 14, N-((1r, 3r)-3-Isothiocyanatocyclobutyl)-2-(4-methoxyphenyl)cyclopropane-1-carboxamide] is 7.00 to 8.00; for `COc1ccc(CCCC(=O)N[C@H]2C[C@@H](N=C=S)C2)cc1` [Example 15, N-((1r, 3r)-3-Isothiocyanatocyclobutyl)-4-(4-methoxyphenyl)butanamide] it is 7.00 to 8.00; for `COc1ccc(-c2cc(C(=O)N[C@H]3C[C@@H](N=C=S)C3)on2)cc1` [Example 16, N-((1r, 3r)-3-Isothiocyanatocyclobutyl)-3-(4-methoxyphenyl)isoxazole-5-carboxamide] it is 7.00 to 8.00.

As a reminder, the pIC50 is the IC50 on a negative log10 scale, so that one unit is a factor of ten.
